# What was measured:
# [1] = target: human FOLH1 (Homo sapiens (Human), UniProt Q04609); assay: SPR analysis of binding kinetics to biotinylated FOLH1 (Biacore 8K); conditions: ligand PSMA; for Kon: association rate; for koff: dissociation rate; for Kd: kinetic 1:1 binding model
# Procedure: The interaction of PSMA-binding variants with human FOLH1 was measured with Surface Plasmon Resonance (SPR) technology. Biotinylated FOLH1 was captured at a concentration of 30 μg/mL onto a Streptavidin chip.
# Binding kinetics of the analytes were measured with a Biacore 8K instrument in two-fold serial dilutions starting at 500 nM down to 1.95 nM in single cycle kinetic measurements. After each cycle, needles were washed with 50% DMSO. To measure the association to the FOLH1 protein, the samples were injected with a flow rate of 30 μL/min for 90 s, followed by 1200 s buffer only to detect the dissociation. The used running buffer was 1×PBS with 0.05% Tween20 and 2% DMSO. The relative response units (RU, Y-axis) are plotted against time (s, X-axis) and analyzed in a kinetic 1:1 binding model.
# In a different setup, biotinylated FOLH1 was captured at a concentration of 0.8 μg/mL and the running buffer was 1×PBS with 0.05% Tween20.
# [2] = target: Recombinant Human PSMA/FOLH1 Protein (Homo sapiens (Human), UniProt Q04609); assay: Inhibition assay (Amplex Red glutamic acid/glutamate oxidase, NAAG substrate); format: biochemical; conditions: Target PSMA, average of N replicates; for IC50: PSMA 5 nM, NAAG 40 μM; for Ki: calculated based on Cheng-Prusoff equation
# Procedure: Amplex™ Red Glutamic Acid/Glutamate Oxidase Assay Kit Catalog number: A12221 (Thermofisher); Recombinant Human PSMA/FOLH1 Protein, CF (rnd systems); N-Acetyl-Asp-Glu (NAAG) (Sigma Aldrich; 96 well half area plate; Enspire plate reader.
# Prepare a working solution of 100 μM Amplex® Red reagent containing 0.25 U/mL HRP, 0.08 U/mL L-glutamate oxidase, 0.5 U/mL 1-glutamate-pyruvate transaminase, 200 μM L-alanine and keep protected from light. […] Final concentration is 5 nM. Transfer 10 μl/well of the inhibitor solution previously prepared in a separate 96 wells/plate.
# Pipette 20 μl/well of the working solution prepared above. Incubate the reactions for 30 min at 37° C., protected from light. Because the assay is continuous (not terminated), fluorescence may be measured at multiple time points to follow the kinetics of the reactions. Measure the fluorescence in a fluorescence microplate reader using excitation in the range of 530-560 nm and emission detection at ˜590 nm. Ec50s were determined with GraphPad Prism. Ki is calculated based on Cheng-Prusoff equation.
# [3] = target: PSMA+ cells (22rv1 human prostate carcinoma epithelial cell line) (Homo sapiens (Human), UniProt Q04609); assay: Cellular competition assay on PSMA+ cells (flow cytometry, competition with BPT1288), 22rv1; format: cell-based
# PSMA+ cells (22rv1 human prostate carcinoma epithelial cell line), sequence (Q04609 whole entry): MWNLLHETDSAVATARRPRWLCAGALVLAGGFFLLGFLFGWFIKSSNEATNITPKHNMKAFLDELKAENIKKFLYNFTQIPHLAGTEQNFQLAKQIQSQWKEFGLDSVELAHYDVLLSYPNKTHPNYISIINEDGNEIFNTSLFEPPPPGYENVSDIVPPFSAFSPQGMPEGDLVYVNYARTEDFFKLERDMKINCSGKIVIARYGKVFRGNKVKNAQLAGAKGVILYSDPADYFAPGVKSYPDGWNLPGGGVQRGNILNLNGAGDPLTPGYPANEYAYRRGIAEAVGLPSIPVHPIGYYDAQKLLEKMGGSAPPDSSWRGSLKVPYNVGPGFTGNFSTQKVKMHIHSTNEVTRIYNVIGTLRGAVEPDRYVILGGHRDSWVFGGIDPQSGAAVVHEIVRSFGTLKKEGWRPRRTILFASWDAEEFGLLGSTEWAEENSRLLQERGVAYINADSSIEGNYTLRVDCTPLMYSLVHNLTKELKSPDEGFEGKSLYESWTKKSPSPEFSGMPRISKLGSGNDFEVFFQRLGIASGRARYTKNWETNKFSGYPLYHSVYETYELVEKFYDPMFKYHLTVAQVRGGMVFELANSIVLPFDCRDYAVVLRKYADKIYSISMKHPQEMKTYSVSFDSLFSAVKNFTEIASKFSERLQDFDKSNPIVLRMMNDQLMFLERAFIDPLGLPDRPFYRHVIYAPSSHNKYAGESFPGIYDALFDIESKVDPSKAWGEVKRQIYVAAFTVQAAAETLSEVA
# Procedure: On the day of experiment, cells were harvested with Trypsin and washed with assay buffer consisting of 1×PBS supplemented with 2% FBS and stained with viability dye (Biolegend Zombie NIR) diluted 1:1000 in PBS for 20 minutes. After washing and counting, cells were seeded at 50,000 cells/well in a 96 well V bottom polypropylene plate and kept on ice. Twelve 4-fold serial dilutions of analytes were prepared in cold assay buffer and added to cell suspension.
# Single-cell AlexaFluor488 fluorescence emission was measured with a flow cytometer and plotted against analyte concentration in X-axis. Half maximal inhibition concentrations (IC50) were calculated based on a variable slope and four parameter analysis using GraphPad PRISM software
# Recombinant Human PSMA/FOLH1 Protein, sequence (Q04609 whole entry): as above
# human FOLH1, sequence (Q04609 whole entry): as above
Structure (SMILES),Kon [1],koff [1],Kd [1],IC50 [2],Ki [2],IC50 [3]
CC(=O)NCCOCCOCCOCCC(=O)NC[C@H]1CC[C@H](C(=O)N[C@@H](Cc2ccc(OCc3ccccc3)cc2)C(=O)NCCCC[C@H](NC(=O)N[C@@H](CCC(=O)O)C(=O)O)C(=O)O)CC1 [Compound 16],461000 1.ms,0.00356 s⁻¹,7.73 nM,331 nM,2.37 nM,–
CC(=O)NCCOCCOCCOCCC(=O)NC[C@H]1CC[C@H](C(=O)N[C@@H](Cc2ccccc2)C(=O)NCCCC[C@H](NC(=O)N[C@@H](CCC(=O)O)C(=O)O)C(=O)O)CC1 [Compound 17],125000 1.ms,0.000207 s⁻¹,1.65 nM,92.6 nM,0.662 nM,–
CC(=O)NCCOCCOCCOCCC(=O)NC[C@H]1CC[C@H](C(=O)N[C@@H](Cc2cccc(C(=O)O)c2)C(=O)NCCCC[C@H](NC(=O)N[C@@H](CCC(=O)O)C(=O)O)C(=O)O)CC1 [Compound 10],–,–,2.02 nM,21.3 nM,0.152 nM,–
CC(=O)NCCOCCOCCOCCC(=O)NC[C@H]1CC[C@H](C(=O)N[C@@H](Cc2ccc3ccccc3c2)C(=O)NCCCC[C@H](NC(=O)N[C@@H](CCC(=O)O)C(=O)O)C(=O)O)CC1 [Compound 8],–,–,0.654 nM,29.3 nM,0.21 nM,2.65 nM
CC(=O)NCCOCCOCCOCCC(=O)N(CCCCOc1cc(C#N)cc(C#N)c1)CC(=O)N[C@@H](Cc1ccc2ccccc2c1)C(=O)NCCCC[C@H](NC(=O)N[C@@H](CCC(=O)O)C(=O)O)C(=O)O [Compound 87],272000 1.ms,0.000136 s⁻¹,0.5 nM,1480 nM,10.6 nM,–
CC(=O)NCCOCCOCCOCCC(=O)NC[C@H]1CC[C@H](C(=O)N[C@@H](Cc2ccc(N)cc2)C(=O)NCCCC[C@H](NC(=O)N[C@@H](CCC(=O)O)C(=O)O)C(=O)O)CC1 [Compound 14],131000 1.ms,0.000618 s⁻¹,4.71 nM,286 nM,2.05 nM,–
CC(=O)NCCOCCOCCOCCC(=O)NC[C@H]1CC[C@H](C(=O)N[C@@H](Cc2ccc3ccccc3c2)C(=O)NCCCC[C@H](NC(=O)N[C@@H](CCCC(=O)O)C(=O)O)C(=O)O)CC1 [Compound 24],305000 1.ms,0.0107 s⁻¹,35.2 nM,3350 nM,24 nM,–
CC(=O)NCCOCCOCCOCCC(=O)N[C@@H](Cc1ccc(C(=O)O)cc1)C(=O)NCCCC(=O)N[C@@H](Cc1ccc2ccccc2c1)C(=O)NCCCC[C@H](NC(=O)N[C@@H](CCC(=O)O)C(=O)O)C(=O)O [Compound 97],90100 1.ms,0.000328 s⁻¹,3.64 nM,10.8 nM,0.077 nM,–
CC(=O)NCCOCCOCCOCCC(=O)N[C@@H](Cc1cccc(C(=O)O)c1)C(=O)NCCC(=O)N[C@@H](Cc1ccc2ccccc2c1)C(=O)NCCCC[C@H](NC(=O)N[C@@H](CCC(=O)O)C(=O)O)C(=O)O [Compound 93],149000 1.ms,0.000258 s⁻¹,1.73 nM,9.6 nM,0.0686 nM,–
CC(=O)NCCOCCOCCOCCC(=O)N[C@@H]1C[C@@H](C(=O)NCC(=O)N[C@@H](Cc2ccc3ccccc3c2)C(=O)NCCCC[C@H](NC(=O)N[C@@H](CCC(=O)O)C(=O)O)C(=O)O)N(C(=O)COc2cc(C#N)cc(C#N)c2)C1 [Compound 90],183000 1.ms,0.000232 s⁻¹,1.27 nM,87.6 nM,0.626 nM,–

# From patent US20250213705A1, “PSMA TARGETING LIGANDS AND METHODS OF USE” (Bright Peak Therapeutics AG, priority 2023, published 2025)
